Data: patent publication US10758534B2 (Vertex Pharmaceuticals Incorporated, priority 2014, dated 2020)

Target: T1, F508del (Homo sapiens, UniProt P13569, DEL508-508)
T1 construct: expressed in transfected cells
Assay: Protocol 1: membrane potential optical assay (FLIPR III, voltage sensing dye), identification of potentiator compounds
Format: cell-based
Details: Table 3, compounds of Table 1
Procedure, shortened: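 Mouse NIH 3T3 fibroblasts stably expressing F508del, temperature-corrected at 27 °C for 24 h, pretreated with compound, then loaded with voltage-sensing redistribution dye. Forskolin was added in a single step with a chloride gradient (chloride-free gluconate bath; Bath Solution #1 HEPES pH 7.4). Membrane-potential fluorescence read on FLIPR III.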

T1 sequence (P13569 with tags, fused parts or gaps DEL508-508): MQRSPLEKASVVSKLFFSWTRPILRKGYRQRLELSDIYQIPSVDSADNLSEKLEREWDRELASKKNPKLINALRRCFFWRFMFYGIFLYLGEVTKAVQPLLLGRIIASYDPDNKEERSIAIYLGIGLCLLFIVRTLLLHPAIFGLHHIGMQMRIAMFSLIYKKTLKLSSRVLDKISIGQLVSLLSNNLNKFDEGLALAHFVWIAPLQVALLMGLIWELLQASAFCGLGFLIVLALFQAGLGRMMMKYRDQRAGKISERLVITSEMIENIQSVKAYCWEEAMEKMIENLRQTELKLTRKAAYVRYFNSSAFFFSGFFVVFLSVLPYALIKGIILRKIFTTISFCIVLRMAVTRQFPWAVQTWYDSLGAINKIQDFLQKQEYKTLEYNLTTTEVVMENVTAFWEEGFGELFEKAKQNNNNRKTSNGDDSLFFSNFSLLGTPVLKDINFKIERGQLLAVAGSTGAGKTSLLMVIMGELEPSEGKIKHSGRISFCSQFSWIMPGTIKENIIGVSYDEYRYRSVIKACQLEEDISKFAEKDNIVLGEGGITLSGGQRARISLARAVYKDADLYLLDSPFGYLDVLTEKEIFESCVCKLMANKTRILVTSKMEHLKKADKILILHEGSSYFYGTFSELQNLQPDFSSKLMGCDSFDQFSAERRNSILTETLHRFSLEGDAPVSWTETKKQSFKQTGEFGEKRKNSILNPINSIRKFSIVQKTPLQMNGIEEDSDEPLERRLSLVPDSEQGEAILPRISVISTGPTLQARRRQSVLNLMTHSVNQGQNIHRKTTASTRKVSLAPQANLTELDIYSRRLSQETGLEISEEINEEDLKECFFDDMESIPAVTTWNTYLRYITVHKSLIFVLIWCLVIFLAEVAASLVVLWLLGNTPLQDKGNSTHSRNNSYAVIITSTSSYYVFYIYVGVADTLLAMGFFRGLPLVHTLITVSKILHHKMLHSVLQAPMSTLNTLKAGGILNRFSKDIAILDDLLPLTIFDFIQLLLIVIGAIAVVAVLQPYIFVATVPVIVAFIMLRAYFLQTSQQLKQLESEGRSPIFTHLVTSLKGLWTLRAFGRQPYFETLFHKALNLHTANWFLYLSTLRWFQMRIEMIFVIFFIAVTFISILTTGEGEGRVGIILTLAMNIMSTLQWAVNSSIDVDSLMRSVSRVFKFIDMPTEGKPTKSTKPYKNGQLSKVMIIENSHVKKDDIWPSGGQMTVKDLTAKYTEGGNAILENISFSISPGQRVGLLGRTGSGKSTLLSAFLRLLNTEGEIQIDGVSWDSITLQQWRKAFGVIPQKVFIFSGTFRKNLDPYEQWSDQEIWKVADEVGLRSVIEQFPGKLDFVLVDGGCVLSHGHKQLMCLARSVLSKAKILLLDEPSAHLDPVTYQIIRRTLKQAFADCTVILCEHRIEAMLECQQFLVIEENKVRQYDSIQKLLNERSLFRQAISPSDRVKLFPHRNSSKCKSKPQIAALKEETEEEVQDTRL

EC30 | Structure (SMILES)
+++ (“+++” means <3 uM) | Cc1cc(C)c(Oc2nc(C3CCC(C(F)(F)F)CC3)ccc2C(=O)NS(=O)(=O)c2cccc(N)n2)c(C)c1 (stereo not shown) [Compound 1519, N-[(6-amino-2-pyridyl)sulfonyl]-6-[4-(trifluoromethyl)cyclohexyl]-2-(2,4,6-trimethylphenoxy)pyridine-3-carboxamide]
++ (“++” means between 3 uM and 10 uM) | COc1ncc(-c2ccc(C(=O)NS(=O)(=O)c3nccnc3N)c(N3CCC(C)CC3)n2)cc1C [Compound 1191, N-(3-aminopyrazin-2-yl)sulfonyl-6-(6-methoxy-5-methyl-3-pyridyl)-2-(4-methyl-1-piperidyl)pyridine-3-carboxamide]
+++ (“+++” means <3 uM) | CCOc1cccc2c1CN(Cc1c(C)cc(C)cc1C)C2(C)C(=O)NS(=O)(=O)c1nccs1 (stereo not shown) [Compound 1546, 4-ethoxy-1-methyl-N-thiazol-2-ylsulfonyl-2-[(2,4,6-trimethylphenyl)methyl]isoindoline-1-carboxamide]
++ (“++” means between 3 uM and 10 uM) | CCOc1ccc(-c2ccc(C(=O)NS(=O)(=O)c3ccc[nH]c3=O)c(Oc3c(C)cc(C)cc3C)n2)cc1 [Compound 1179, 6-(4-ethoxyphenyl)-N-[(2-oxo-1H-pyridin-3-yl)sulfonyl]-2-(2,4,6-trimethylphenoxy)pyridine-3-carboxamide]
+++ (“+++” means <3 uM) | CC(C)C[C@@H](C)Nc1ccc(-c2ccc(C(=O)NS(=O)(=O)c3cccc(N)n3)c(N3[C@H](C)CC[C@@H]3C)n2)cn1 [Compound 1527, N-[(6-amino-2-pyridyl)sulfonyl]-6-[6-[[(1R)-1,3-dimethylbutyl]amino]-3-pyridyl]-2-[(2S,5R)-2,5-dimethylpyrrolidin-1-yl]pyridine-3-carboxamide]
++ (“++” means between 3 uM and 10 uM) | Cc1cc(C)c(Oc2ncc(CCc3ccccc3)cc2C(=O)NS(=O)(=O)c2cccc(N)n2)c(C)c1 [Compound 1253, N-[(6-amino-2-pyridyl)sulfonyl]-5-phenethyl-2-(2,4,6-trimethylphenoxy)pyridine-3-carboxamide]
+++ (“+++” means <3 uM) | Cc1cc(C)c(Oc2nc(C(C)C(C)C)ccc2C(=O)NS(=O)(=O)c2cccc(N)n2)c(C)c1 (stereo not shown) [Compound 1486, N-[(6-amino-2-pyridyl)sulfonyl]-6-(1,2-dimethylpropyl)-2-(2,4,6-trimethylphenoxy)pyridine-3-carboxamide]
+++ (“+++” means <3 uM) | C[C@@H]1CN(c2nc(N3C[C@@H](C)CC3(C)C)c(C(=O)NS(=O)(=O)c3cccc(N)n3)cc2F)C(C)(C)C1 [Compound 1673, N-[(6-amino-2-pyridyl)sulfonyl]-5-fluoro-2,6-bis[(4S)-2,2,4-trimethylpyrrolidin-1-yl]pyridine-3-carboxamide]
+++ (“+++” means <3 uM) | C[C@@H]1CN(c2nc(C3=CCC(C(F)(F)F)CC3)ccc2C(=O)NS(=O)(=O)c2cccc(N)n2)C(C)(C)C1 (stereo partly drawn) [Compound 1664, N-[(6-amino-2-pyridyl)sulfonyl]-6-[4-(trifluoromethyl)cyclohexen-1-yl]-2-[(4S)-2,2,4-trimethylpyrrolidin-1-yl]pyridine-3-carboxamide]
+++ (“+++” means <3 uM) | CC1CN(c2ncccc2C(=O)NS(=O)(=O)c2cccc(N3CCC(c4ccccc4)CC3)n2)C(C)(C)C1 (stereo not shown) [Compound 1987, N—[[6-(4-phenyl-1-piperidyl)-2-pyridyl]sulfonyl]-2-(2,2,4-trimethylpyrrolidin-1-yl)pyridine-3-carboxamide]
+++ (“+++” means <3 uM) | C[C@@H]1CN(c2nc(C3=CCN(C(=O)OC(C)(C)C)CC3)ccc2C(=O)NS(=O)(=O)c2cccc(N)n2)C(C)(C)C1 [Compound 1624, tert-butyl 4-[5-[(6-amino-2-pyridyl)sulfonylcarbamoyl]-6-[(4S)-2,2,4-trimethylpyrrolidin-1-yl]-2-pyridyl]-3,6-dihydro-2H-pyridine-1-carboxylate]
++ (“++” means between 3 uM and 10 uM) | Cc1cc(C)c(Oc2nc(C3=CC(=O)CC(C)(C)C3)ccc2C(=O)NS(=O)(=O)c2cccc(N)n2)c(C)c1 [Compound 1528, N-[(6-amino-2-pyridyl)sulfonyl]-6-(5,5-dimethyl-3-oxo-cyclohexen-1-yl)-2-(2,4,6-trimethylphenoxy)pyridine-3-carboxamide]

The next lines start with the compound.

Structure (SMILES) | EC30
CC(C)CNc1cccc(-c2ccc(C(=O)NS(=O)(=O)c3cccc(N)n3)c(N3CC(C)CC3(C)C)n2)n1 (stereo not shown) [Compound 1059, N-[(6-amino-2-pyridyl)sulfonyl]-6-[6-(isobutylamino)-2-pyridyl]-2-(2,2,4-trimethylpyrrolidin-1-yl)pyridine-3-carboxamide] | +++ (“+++” means <3 uM)
Cc1cc(C)c(Oc2ncc(-c3ccccc3C(C)C)cc2C(=O)NS(=O)(=O)c2cccc(N)n2)c(C)c1 [Compound 865, N-[(6-amino-2-pyridyl)sulfonyl]-5-(2-isopropylphenyl)-2-(2,4,6-trimethylphenoxy)pyridine-3-carboxamide] | +++ (“+++” means <3 uM)
CC(C)COc1cc(F)cc(-c2ccc(C(=O)NS(=O)(=O)c3cccc(N)n3)c(N3CCC(C)(C)[C@H]3C)n2)c1 [Compound 1065, N-[(6-amino-2-pyridyl)sulfonyl]-6-(3-fluoro-5-isobutoxy-phenyl)-2-[(2R)-2,3,3-trimethylpyrrolidin-1-yl]pyridine-3-carboxamide] | +++ (“+++” means <3 uM)
Cc1cc(C)c(Oc2nc(-c3cnc(N(C)C)nc3)ccc2C(=O)NS(=O)(=O)c2cccc(N)n2)c(C)c1 [Compound 1139, N-[(6-amino-2-pyridyl)sulfonyl]-6-[2-(dimethylamino)pyrimidin-5-yl]-2-(2,4,6-trimethylphenoxy)pyridine-3-carboxamide] | +++ (“+++” means <3 uM)
CC1CN(c2nc(-c3ccc(Cl)cc3)ccc2C(=O)NS(=O)(=O)c2cccc(N)n2)C(C)(C)C1 (stereo not shown) [Compound 1100, N-[(6-amino-2-pyridyl)sulfonyl]-6-(4-chlorophenyl)-2-(2,2,4-trimethylpyrrolidin-1-yl)pyridine-3-carboxamide] | +++ (“+++” means <3 uM)
Cc1cc(C)c(CN2C[C@H](c3ccccc3)C[C@H]2C(=O)NS(=O)(=O)c2cccc(N)n2)c(C)c1 [Compound 870, (2S,4S)—N-[(6-amino-2-pyridyl)sulfonyl]-4-phenyl-1-[(2,4,6-trimethylphenyl)methyl]pyrrolidine-2-carboxamide] | ++ (“++” means between 3 uM and 10 uM)
C[C@@H]1CC[C@H](C)N1c1nc(-c2ccccc2)ccc1C(=O)NS(=O)(=O)c1cccc(N)n1 [Compound 805, N-[(6-amino-2-pyridyl)sulfonyl]-2-[(2S,5R)-2,5-dimethylpyrrolidin-1-yl]-6-phenyl-pyridine-3-carboxamide] | +++ (“+++” means <3 uM)
CC(C)COc1cc(F)cc(-c2ccc(C(=O)NS(=O)(=O)c3cccc(N)n3)c(OC3CCCC3(C)C)n2)c1 (stereo not shown) [Compound 1629, N-[(6-amino-2-pyridyl)sulfonyl]-2-(2,2-dimethylcyclopentoxy)-6-(3-fluoro-5-isobutoxy-phenyl)pyridine-3-carboxamide] | +++ (“+++” means <3 uM)
CC(C)Oc1ccc(-c2ccc(C(=O)NS(=O)(=O)c3ccn[nH]3)c(N3C[C@H](C)C[C@@H](C)C3)n2)cn1 [Compound 990, 2-[(3R,5R)-3,5-dimethyl-1-piperidyl]-6-(6-isopropoxy-3-pyridyl)-N-(1H-pyrazol-5-ylsulfonyl)pyridine-3-carboxamide] | +++ (“+++” means <3 uM)
Cc1cc(C)c(Oc2nc(-c3ccc(CN(C)C)cc3)ccc2C(=O)NS(=O)(=O)c2cccc(N)n2)c(C)c1 [Compound 962, N-[(6-amino-2-pyridyl)sulfonyl]-6-[4-(dimethylaminomethyl)phenyl]-2-(2,4,6-trimethylphenoxy)pyridine-3-carboxamide] | ++ (“++” means between 3 uM and 10 uM)
CC(C)COc1cc(F)cc(-c2ccc(C(=O)NS(=O)(=O)c3cccc(N)n3)c(N3CC[C@@H](C)C3)n2)c1 [Compound 1051, N-[(6-amino-2-pyridyl)sulfonyl]-6-(3-fluoro-5-isobutoxy-phenyl)-2-[(3R)-3-methylpyrrolidin-1-yl]pyridine-3-carboxamide] | +++ (“+++” means <3 uM)
CCC1CCCN1c1nc(-c2cc(F)cc(OCC(C)C)c2)ccc1C(=O)NS(=O)(=O)c1cccc(N)n1 (stereo not shown) [Compound 1218, N-[(6-amino-2-pyridyl)sulfonyl]-2-(2-ethylpyrrolidin-1-yl)-6-(3-fluoro-5-isobutoxy-phenyl)pyridine-3-carboxamide] | +++ (“+++” means <3 uM)
CCCOc1cccc(-c2ccc(C(=O)NS(=O)(=O)c3ccc[nH]c3=O)c(Oc3c(C)cc(C)cc3C)n2)c1Cl [Compound 955, 6-(2-chloro-3-propoxy-phenyl)-N-[(2-oxo-1H-pyridin-3-yl)sulfonyl]-2-(2,4,6-trimethylphenoxy)pyridine-3-carboxamide] | ++ (“++” means between 3 uM and 10 uM)
CC(C)COc1cc(F)cc(-c2ccc(C(=O)NS(=O)(=O)c3ccn[nH]3)c(N3CC(C)OC(C)C3)n2)c1 (stereo not shown) [Compound 1119, 2-(2,6-dimethylmorpholin-4-yl)-6-(3-fluoro-5-isobutoxy-phenyl)-N-(1H-pyrazol-5-ylsulfonyl)pyridine-3-carboxamide] | ++ (“++” means between 3 uM and 10 uM)
Cc1ccc(-c2ccc(C(=O)NS(=O)(=O)c3cc[nH]n3)c(NCC3(C)CCOCC3)n2)cc1 [Compound 879, 2-[(4-methyltetrahydropyran-4-yl)methylamino]-6-(p-tolyl)-N-(1H-pyrazol-3-ylsulfonyl)pyridine-3-carboxamide] | + (“+” means greater than 10 uM)
CC(C)Oc1ccc(-c2ccc(C(=O)NS(=O)(=O)c3cccc(N)n3)c(N3C(C)CC(C)C3C)n2)cn1 (stereo not shown) [Compound 925, N-[(6-amino-2-pyridyl)sulfonyl]-6-(6-isopropoxy-3-pyridyl)-2-(2,3,5-trimethylpyrrolidin-1-yl)pyridine-3-carboxamide] | +++ (“+++” means <3 uM)
